Data on twelve molecules can be found in PubChem BioAssay (NCI).

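48-hour exposure; five concentrations; linearly interpolated endpoints. TGI is the concentration that stops growth completely.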

The test system of one experiment is RXF 393 renal. Kind of experiment: NCI tumour cell line growth inhibition, 48 h.
As for `O=C(CCc1cc(O)cc(O)c1)NCCc1cc(O)cc(O)c1`, the TGI was over 100 µM.
Molecule `CCCCCC(/C=C/C1CCC(=O)C1CC#C[Si](C)(C)C)OCc1ccccc1` (stereo not drawn) had a TGI of 30.1 µM.
The molecule `COC(=O)C1C=CN(N(C)C)C2=C1C(=O)c1c(O)cccc1C2=O` (stereo not drawn) had a TGI of 14.1 µM.

A further experiment deals with SK-MEL-5 melanoma. In words: NCI tumour cell line growth inhibition, 48 h.
For the molecule `COc1ccc(CN(Cc2ccc(OC)cc2)C(=O)CC2(O)C=CCC2)cc1` (stereo not drawn), the TGI is over 100 µM.
On the same count and under the same terms, then `N#C/C(N)=C(\C#N)NC=NCc1ccccc1`, with over 100 µM.
Same read-out and setting: then `CCc1nc2ccc(N=NN(C)C)cc2[nH]1`, with over 100 µM; and `CN(CCN(C)C(=S)NN)C(=S)NN`, with over 100 µM; and `COc1ccc(CCN=C2OCc3ccccc32)cc1OC`, with over 100 µM.
Same read-out and setting: then `CC(C)(C)c1cc(C(CO)OCCOCCO)cc(C(C)(C)C)c1O` (stereo not drawn), with over 100 µM; and `Cc1ccc(NC(=S)NNC(=O)c2cc(-c3ccccc3)nc3ccccc23)cc1`, with 35.3 µM; and `O=C(CCc1cc(O)cc(O)c1)NCCc1cc(O)cc(O)c1`, with over 100 µM.
As to `CCCCCC(/C=C/C1CCC(=O)C1CC#C[Si](C)(C)C)OCc1ccccc1` (stereo not drawn), the TGI stood at 27.9 µM.
On the same count and under the same terms, the value for `COC(=O)C1C=CN(N(C)C)C2=C1C(=O)c1c(O)cccc1C2=O` (stereo not drawn) was 1.77 µM.

The test system of another experiment is T-47D breast. Kind of experiment: NCI tumour cell line growth inhibition, 48 h.
For the molecule `COc1ccc(CN(Cc2ccc(OC)cc2)C(=O)CC2(O)C=CCC2)cc1` (stereo not drawn), the TGI is over 100 µM.
On the same count and under the same terms, the value for `O=C(NC(CO)Cc1ccc(Oc2cc(CC(CO)NC(=O)OCc3ccccc3)ccc2OC(=O)OCc2ccccc2)cc1)OCc1ccccc1` (stereo not drawn) was 23.1 µM.
Same read-out and setting: the value for `N#C/C(N)=C(\C#N)NC=NCc1ccccc1` was over 100 µM; that for `COc1ccc(/C=N/n2c(-c3ccccc3)n[nH]c2=O)cc1` was over 100 µM.
As for `CCc1nc2ccc(N=NN(C)C)cc2[nH]1`, the TGI was over 100 µM.
On the same count and under the same terms, the value for `CN(CCN(C)C(=S)NN)C(=S)NN` was over 100 µM; that for `COc1ccc(CCN=C2OCc3ccccc32)cc1OC` was 86.6 µM; that for `CC(C)(C)c1cc(C(CO)OCCOCCO)cc(C(C)(C)C)c1O` (stereo not drawn) was over 100 µM.
Still for that read-out and setting: then `Cc1ccc(NC(=S)NNC(=O)c2cc(-c3ccccc3)nc3ccccc23)cc1`, with 21.3 µM.
On the same count and under the same terms, the value for `O=C(CCc1cc(O)cc(O)c1)NCCc1cc(O)cc(O)c1` was over 100 µM; that for `CCCCCC(/C=C/C1CCC(=O)C1CC#C[Si](C)(C)C)OCc1ccccc1` (stereo not drawn) was 85.1 µM.
`COC(=O)C1C=CN(N(C)C)C2=C1C(=O)c1c(O)cccc1C2=O` (stereo not drawn) showed a TGI of 6.45 µM.

A further experiment has as its system SF-268 CNS. Kind of experiment: NCI tumour cell line growth inhibition, 48 h.
In the case of `O=C(NC(CO)Cc1ccc(Oc2cc(CC(CO)NC(=O)OCc3ccccc3)ccc2OC(=O)OCc2ccccc2)cc1)OCc1ccccc1` (stereo not drawn), the TGI was 88.9 µM.
In turn, `N#C/C(N)=C(\C#N)NC=NCc1ccccc1` had a TGI of over 100 µM.
Still for that read-out and setting: then `COc1ccc(/C=N/n2c(-c3ccccc3)n[nH]c2=O)cc1`, with over 100 µM.
The same measure, in the same setting: then `CCc1nc2ccc(N=NN(C)C)cc2[nH]1`, with over 100 µM; and `CN(CCN(C)C(=S)NN)C(=S)NN`, with over 100 µM; and `CC(C)(C)c1cc(C(CO)OCCOCCO)cc(C(C)(C)C)c1O` (stereo not drawn), with over 100 µM.
The same measure, in the same setting: the value for `Cc1ccc(NC(=S)NNC(=O)c2cc(-c3ccccc3)nc3ccccc23)cc1` was 34.8 µM; that for `O=C(CCc1cc(O)cc(O)c1)NCCc1cc(O)cc(O)c1` was over 100 µM.
For `CCCCCC(/C=C/C1CCC(=O)C1CC#C[Si](C)(C)C)OCc1ccccc1` (stereo not drawn), the TGI came to 29.4 µM.
Still for that read-out and setting: then `COC(=O)C1C=CN(N(C)C)C2=C1C(=O)c1c(O)cccc1C2=O` (stereo not drawn), with 17.3 µM.

Another experiment relates to SF-539 CNS. In words: NCI tumour cell line growth inhibition, 48 h.
Regarding `COc1ccc(CN(Cc2ccc(OC)cc2)C(=O)CC2(O)C=CCC2)cc1` (stereo not drawn), the TGI was over 100 µM.
For the molecule `O=C(NC(CO)Cc1ccc(Oc2cc(CC(CO)NC(=O)OCc3ccccc3)ccc2OC(=O)OCc2ccccc2)cc1)OCc1ccccc1` (stereo not drawn), the TGI stood at 38.5 µM.
Turning to `N#C/C(N)=C(\C#N)NC=NCc1ccccc1`, the TGI is over 100 µM.
Regarding `COc1ccc(/C=N/n2c(-c3ccccc3)n[nH]c2=O)cc1`, the TGI is over 100 µM.
Same read-out and setting: then `COc1ccc(CCN=C2OCc3ccccc32)cc1OC`, with 63.2 µM; and `CC(C)(C)c1cc(C(CO)OCCOCCO)cc(C(C)(C)C)c1O` (stereo not drawn), with over 100 µM; and `Cc1ccc(NC(=S)NNC(=O)c2cc(-c3ccccc3)nc3ccccc23)cc1`, with 30.1 µM.
Still for that read-out and setting: the value for `O=C(CCc1cc(O)cc(O)c1)NCCc1cc(O)cc(O)c1` was over 100 µM.
The same measure, in the same setting: then `CCCCCC(/C=C/C1CCC(=O)C1CC#C[Si](C)(C)C)OCc1ccccc1` (stereo not drawn), with 46.2 µM.

For a further experiment, the system named is KM12 colon. In words: NCI tumour cell line growth inhibition, 48 h.
Molecule `COc1ccc(CN(Cc2ccc(OC)cc2)C(=O)CC2(O)C=CCC2)cc1` (stereo not drawn) registered a TGI of over 100 µM.
Still for that read-out and setting: the value for `O=C(NC(CO)Cc1ccc(Oc2cc(CC(CO)NC(=O)OCc3ccccc3)ccc2OC(=O)OCc2ccccc2)cc1)OCc1ccccc1` (stereo not drawn) was 50.4 µM; that for `N#C/C(N)=C(\C#N)NC=NCc1ccccc1` was over 100 µM; that for `COc1ccc(/C=N/n2c(-c3ccccc3)n[nH]c2=O)cc1` was over 100 µM.
Regarding `CCc1nc2ccc(N=NN(C)C)cc2[nH]1`, the TGI is over 100 µM.
The same measure, in the same setting: then `CN(CCN(C)C(=S)NN)C(=S)NN`, with over 100 µM; and `COc1ccc(CCN=C2OCc3ccccc32)cc1OC`, with over 100 µM; and `CC(C)(C)c1cc(C(CO)OCCOCCO)cc(C(C)(C)C)c1O` (stereo not drawn), with over 100 µM.
Turning to `Cc1ccc(NC(=S)NNC(=O)c2cc(-c3ccccc3)nc3ccccc23)cc1`, the TGI was 37.7 µM.
